{"source": "patent US20070292888A1", "about": "“Methods for Measuring Enzyme Activities in Cells, Blood, Tumors and Tissues” (GEN-PATH PHARMACEUTICALS, INC., priority 2004, published 2007)", "key": {"transketolase (TK)": {"target": "T1, transketolase (TK) (Mus musculus, UniProt P40142)", "T1 construct": "from tissue; host or cells: mouse blood, spleen, tumor, kidney, lung, liver (crude lysates)", "T1 sequence (P40142 1-623)": "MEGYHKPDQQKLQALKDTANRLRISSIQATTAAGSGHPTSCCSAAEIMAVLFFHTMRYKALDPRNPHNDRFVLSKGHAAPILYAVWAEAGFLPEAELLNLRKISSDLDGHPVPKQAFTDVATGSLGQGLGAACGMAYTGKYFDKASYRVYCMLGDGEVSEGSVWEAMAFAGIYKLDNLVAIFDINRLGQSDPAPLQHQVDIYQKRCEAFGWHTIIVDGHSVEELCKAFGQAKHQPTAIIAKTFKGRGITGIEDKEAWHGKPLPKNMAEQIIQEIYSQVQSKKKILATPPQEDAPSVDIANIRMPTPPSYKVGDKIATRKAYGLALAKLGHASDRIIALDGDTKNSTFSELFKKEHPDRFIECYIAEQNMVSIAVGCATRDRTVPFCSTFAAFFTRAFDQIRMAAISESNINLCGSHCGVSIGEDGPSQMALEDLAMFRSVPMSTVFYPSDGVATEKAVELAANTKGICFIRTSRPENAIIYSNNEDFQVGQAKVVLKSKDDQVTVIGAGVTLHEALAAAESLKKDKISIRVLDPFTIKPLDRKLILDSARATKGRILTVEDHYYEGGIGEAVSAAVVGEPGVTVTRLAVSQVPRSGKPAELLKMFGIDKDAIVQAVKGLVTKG", "experiment": "Transketolase activity in blood, tumors and tissues of treated mice (fluorescence NADH assay)", "assay_type": "in vivo", "conditions": "11 days i.p. twice per day", "description": "Blood samples from mice were taken (40 μl whole blood) serially or from mice sacrificed at the end of the experiment. Tissues, such as tumors (e.g. from implantation, xenograft, or arising spontaneously), brain, heart, kidney, liver, lung and spleen were taken and flash frozen in liquid nitrogen or on dry ice and stored in −80° C. until time of assay. Four volumes of cold lysis buffer (20 mM HEPES, pH 7.5, 1 mM EDTA, 0.2 g/l Triton X-100® and 0.2 g/L sodium deoxycholate, supplemented with 1 mM DTT and 1 mM PMSF just before use) were added to the blood, which was dissolved by vortexing. For blood that was frozen before coagulation, a clear lysate was obtained. If coagulation occurred, homogenization was used as described below for tissue. Tissues were suspended in lysis buffer in 10 ml round bottom tubes and homogenized with PowerGen 125® (Fisher Scientific) for four seconds at highest power while submerged in an ice-water bath. This step was repeated after a few seconds, as necessary. The lysate was used right away or else flash frozen and stored at −80° C. until assay time. Eighty microliters (80 μl) of lysate (containing 5 mg tissue/ml lysate for TK and kGDH, 0.5 mg/ml for G6PDH) were put directly in individual wells of a 96-well clear-bottomed assay plate. Twenty microliters (20 μl) of 5× reaction mix was added to initiate each enzymatic reaction.\nEach reaction was monitored for the appearance of NADH (for transketolase, alpha-ketoglutarate dehydrogenase, pyruvate dehydrogenase) or NADPH (for glucose-6-phosphate dehydrogenase) at room temperature in a fluorescent plate reader with excitation at 340 nm and emission at 470 nm in kinetic mode. The velocity was determined by the slope of the initial linear range of increasing fluorescence, expressed in fluorescent units (FU)/min. The protein concentration in the lysate was determined using Bradford assays (BioRad) with BSA as a standard. The enzymatic velocity was normalized by the total protein concentration for inter-sample comparison. To obtain reliable results across samples, similar starting protein concentrations were prepared (within approximately 30%) so that the normalized velocity required only small adjustments. This was achieved by weighing the tissue and putting in lysis buffer so that the suspensions contained the same amount of tissue/ml lysis buffer for all samples.\nFor TK, 15 μl of 5× assay buffer containing final concentrations of 50 mM HEPES, 40 mM KCl, 2.5 mM MgCl2, 5 mM NaArsenate, 1 mM NAD, 2 unit/ml glyceraldehydes-3-phosphate dehydrogenase (GAPDH) was added to 80 μl of lysate. Reaction kinetics were monitored on a fluorescent plate reader to allow any possible background activity via GAPDH to burn out. Then 5 μl of substrate mix containing final concentrations of 0.5 mM ribose-5-phosphate and 0.5 mM xylulose-5-phosphate was added to initiate the reaction. The reaction kinetics were monitored using a fluorescent plate reader, and the slope of the initial linear range was recorded as the velocity of the reaction (FU/min). See FIG. 1 for the reaction scheme.\nTo investigate the amount of in vivo enzyme inhibition following treatment with an inhibitor, we administered a single dose of N3PT (100 mg/kg, intraperitoneally [i.p.]) and blood, spleen and brain samples were collected at various times from 0-120 hours after dosing. The enzymatic activities were determined as described in Example 1. TK activity was measured in blood and spleen. Because TK activity in the brain is below the detection limit of the assay, kGDH activity was measured in brain samples. Measurements were taken at various time intervals\nWe measured enzyme activity in an expanded panel of tissues from mice treated with N3PT or OxyT for 11 days i.p., twice per day. Samples were taken from tumors, blood, brain, heart, kidney, lung and spleen, and TK, kGDH and G6PDH activities were determined as described above."}, "[1]": {"target": "T2, glucose-6-phosphate dehydrogenase (G6PDH) (Mus musculus, UniProt Q00612)", "T2 construct": "from tissue; host or cells: mouse tumor, blood, brain, heart, kidney, liver, lung, spleen (crude lysates)", "T2 sequence (Q00612 whole entry)": "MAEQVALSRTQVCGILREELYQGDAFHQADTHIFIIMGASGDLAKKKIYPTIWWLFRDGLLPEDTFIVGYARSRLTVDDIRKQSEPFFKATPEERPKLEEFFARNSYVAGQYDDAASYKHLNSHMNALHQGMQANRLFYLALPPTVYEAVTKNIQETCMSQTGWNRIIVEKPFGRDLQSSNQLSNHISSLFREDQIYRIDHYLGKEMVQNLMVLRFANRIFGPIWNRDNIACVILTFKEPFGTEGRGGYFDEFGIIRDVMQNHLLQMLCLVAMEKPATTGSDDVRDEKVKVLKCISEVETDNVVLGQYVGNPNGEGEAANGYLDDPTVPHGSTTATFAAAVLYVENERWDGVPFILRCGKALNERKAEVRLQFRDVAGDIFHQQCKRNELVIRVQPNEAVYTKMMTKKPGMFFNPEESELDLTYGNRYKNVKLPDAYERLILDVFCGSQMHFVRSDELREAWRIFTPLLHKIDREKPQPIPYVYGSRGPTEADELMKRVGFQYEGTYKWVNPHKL", "experiment": "Glucose-6-phosphate dehydrogenase activity in tissues of treated mice (fluorescence NADPH assay)", "assay_type": "in vivo", "conditions": "11 days i.p. twice per day, various organs", "description": "Blood samples from mice were taken (40 μl whole blood) serially or from mice sacrificed at the end of the experiment. Tissues, such as tumors (e.g. from implantation, xenograft, or arising spontaneously), brain, heart, kidney, liver, lung and spleen were taken and flash frozen in liquid nitrogen or on dry ice and stored in −80° C. until time of assay. Four volumes of cold lysis buffer (20 mM HEPES, pH 7.5, 1 mM EDTA, 0.2 g/l Triton X-100® and 0.2 g/L sodium deoxycholate, supplemented with 1 mM DTT and 1 mM PMSF just before use) were added to the blood, which was dissolved by vortexing. For blood that was frozen before coagulation, a clear lysate was obtained. […]\nEach reaction was monitored for the appearance of NADH (for transketolase, alpha-ketoglutarate dehydrogenase, pyruvate dehydrogenase) or NADPH (for glucose-6-phosphate dehydrogenase) at room temperature in a fluorescent plate reader with excitation at 340 nm and emission at 470 nm in kinetic mode. The velocity was determined by the slope of the initial linear range of increasing fluorescence, expressed in fluorescent units (FU)/min. The protein concentration in the lysate was determined using Bradford assays (BioRad) with BSA as a standard. […]\nWe measured enzyme activity in an expanded panel of tissues from mice treated with N3PT or OxyT for 11 days i.p., twice per day. […]"}}}
{"compound": "Cc1ncc(C[n+]2csc(CCO)c2C)c(=O)[nH]1", "note": "[OxyT, oxythiamine]", "values": [{"measurement": "percent inhibition of TK activity in tumors", "setting": "transketolase (TK); 100 mg/kg, compared to vehicle control", "value": 40, "unit": "%"}, {"measurement": "liver enzymatic (TK) activity", "setting": "transketolase (TK); liver", "value": "hardly affected"}, {"measurement": "G6PDH enzymatic activity following treatment", "setting": "[1]", "value": "no significant decrease"}]}
